Reference: patent publication US11256170B2, “Compound, resist composition, and method for forming resist pattern using it” (Mitsubishi Gas Chemical Company, Inc., priority 2015, dated 2022)

Assay: Safe solvent solubility test of compound
Type: physicochemical
Conditions: for Safe solvent CHN (solubility) / Safe solvent PGME (solubility) / Safe solvent PGMEA (solubility): 23° C., ultrasonic waves 30 minutes, visual; for solubility in safe solvents (in words): summary of Table 1
Procedure: The solubilities of the compound in CHN, PGME, and PGMEA were evaluated according to the following criteria utilizing the amount of dissolution in each solvent. The amount of dissolution was measured at 23° C. by precisely weighing the compound into a test tube, adding a subject solvent so as to attain a predetermined concentration, applying ultrasonic waves for 30 minutes in an ultrasonic cleaner, and visually observing the subsequent state of the fluid.
A: 5.0% by mass≤Amount of dissolution
B: 3.0% by mass≤Amount of dissolution<5.0% by mass
C: Amount of dissolution<3.0% by mass

Compound | Safe solvent CHN (solubility) | Safe solvent PGME (solubility) | Safe solvent PGMEA (solubility) | solubility in safe solvents (in words)
CC(C)(C)OC(=O)COc1ccc2c3c(ccc2c1)Oc1ccc2cc(OCC(=O)OC(C)(C)C)ccc2c1C3c1cccc(I)c1 [Compound A-1-MeBOC] | A (5.0% by mass≤Amount of dissolution) | A (5.0% by mass≤Amount of dissolution) | A (5.0% by mass≤Amount of dissolution) | good solubility
CC(C)(C)OC(=O)Oc1ccc2c3c(ccc2c1)Oc1ccc2cc(OC(=O)OC(C)(C)C)ccc2c1C3c1ccc(-c2ccccc2)cc1 [XBisN-1-BOC, reference compound] | A (5.0% by mass≤Amount of dissolution) | B (3.0% by mass≤Amount of dissolution<5.0% by mass) | A (5.0% by mass≤Amount of dissolution) | good solubility
COc1cc(C2c3c(ccc4cc(OCC(=O)OC(C)(C)C)ccc34)Oc3ccc4cc(OCC(=O)OC(C)(C)C)ccc4c32)cc(I)c1OCC(=O)OC(C)(C)C [Compound A-3-MeBOC] | A (5.0% by mass≤Amount of dissolution) | A (5.0% by mass≤Amount of dissolution) | A (5.0% by mass≤Amount of dissolution) | good solubility
CC(C)(C)OC(=O)Oc1ccc2ccc3c(c2c1)C(c1cccc(I)c1)c1c(ccc2ccc(OC(=O)OC(C)(C)C)cc12)O3 [Compound B-1-BOC] | A (5.0% by mass≤Amount of dissolution) | A (5.0% by mass≤Amount of dissolution) | A (5.0% by mass≤Amount of dissolution) | good solubility
CC(C)(C)OC(=O)Oc1ccc2c3c(ccc2c1)Oc1ccc2cc(OC(=O)OC(C)(C)C)ccc2c1C3c1cccc(I)c1 [Compound A-1-BOC] | A (5.0% by mass≤Amount of dissolution) | A (5.0% by mass≤Amount of dissolution) | A (5.0% by mass≤Amount of dissolution) | good solubility
COc1cc(C2c3c(ccc4cc(OC(=O)OC(C)(C)C)ccc34)Oc3ccc4cc(OC(=O)OC(C)(C)C)ccc4c32)cc(I)c1OC(=O)OC(C)(C)C [Compound A-3-BOC] | A (5.0% by mass≤Amount of dissolution) | A (5.0% by mass≤Amount of dissolution) | B (3.0% by mass≤Amount of dissolution<5.0% by mass) | good solubility
CC(C)(C)OC(=O)OCc1ccc2ccc3c(c2c1)C(c1cccc(I)c1)c1c(ccc2ccc(COC(=O)OC(C)(C)C)cc12)O3 [Compound B-1-MeBOC] | A (5.0% by mass≤Amount of dissolution) | A (5.0% by mass≤Amount of dissolution) | A (5.0% by mass≤Amount of dissolution) | good solubility
